Test results as given in the supplement of paper PMC10307832.

Columns and labels:
Assay in all cases: relative viability (nuclei count vs DMSO), 5 days (fraction); higher = more cells survive
[1] = compound: Cc1ccc(C(=O)Nc2ccc(CN3CCN(C)CC3)c(C(F)(F)F)c2)cc1C#Cc1cnc2cccnn12 [Ponatinib] + N=C(N)NC(=N)NCCc1ccccc1 [Phenformin] (partner 250 µM)
How it was run: (§1)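 Nuclei were stained with Hoechst during a one-step fixation (final 0.05% Triton X-100, 1% formaldehyde, 1 ug/ml Hoechst) carried out 5 days after dosing, then counted on 4× images. The cells, lung cancer lines in 1536-well plates, had been dosed by pin tool the day after seeding with one drug alone or a fixed anchor-drug dose plus five library-drug doses (not always all listed) in √10 steps. Relative viability is the nuclei count in treated wells divided by that in vehicle wells, and each value is the median of duplicate plates.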

[2] = compound: Cc1ccc(Nc2nccc(N(C)c3ccc4c(C)n(C)nc4c3)n2)cc1S(N)(=O)=O [Pazopanib] + CCNC(=O)c1noc(-c2cc(C(C)C)c(O)cc2O)c1-c1ccc(CN2CCOCC2)cc1 [Luminespib] (partner 0.01 µM)
How it was run: as §1

[3] = compound: Cc1ccc(Nc2nccc(N(C)c3ccc4c(C)n(C)nc4c3)n2)cc1S(N)(=O)=O [Pazopanib] + Cc1nc(NC(=O)N2CCC[C@H]2C(N)=O)sc1-c1ccnc(C(C)(C)C(F)(F)F)c1 [Alpelisib] (partner 2 µM)
How it was run: as §1

[4] = compound: Cc1ccc(C(=O)Nc2ccc(CN3CCN(C)CC3)c(C(F)(F)F)c2)cc1C#Cc1cnc2cccnn12 [Ponatinib] + CC1(C)CCC(c2ccc(Cl)cc2)=C(CN2CCN(c3ccc(C(=O)NS(=O)(=O)c4ccc(N[C@H](CCN5CCOCC5)CSc5ccccc5)c(S(=O)(=O)C(F)(F)F)c4)cc3)CC2)C1 [Navitoclax] (partner 0.5 µM)
How it was run: as §1

With SW 1573 the relative viability ([1]; first compound 0.002 µM) was 0.35, the relative viability ([1]; first compound 0.006325 µM) was 0.392 and the relative viability ([1]; first compound 0.06325 µM) was 0.292. The relative viability ([1]; first compound 0.2 µM) was 0.405, the relative viability ([2]; first compound 0.01 µM) was 0.24 and the relative viability ([2]; first compound 0.03162 µM) was 0.17. The relative viability ([2]; first compound 0.1 µM) was 0.266, the relative viability ([2]; first compound 0.3162 µM) was 0.205 and the relative viability ([2]; first compound 1 µM) was 0.236. The relative viability ([3]; first compound 0.01 µM) was 0.69, the relative viability ([3]; first compound 0.03162 µM) was 0.707 and the relative viability ([3]; first compound 0.1 µM) was 0.683. The relative viability ([3]; first compound 0.3162 µM) was 0.808, the relative viability ([3]; first compound 1 µM) was 0.81 and the relative viability ([4]; first compound 0.002 µM) was 1.02. It also gave a relative viability ([4]; first compound 0.006325 µM) of 0.989, a relative viability ([4]; first compound 0.06325 µM) of 1.03 and a relative viability ([4]; first compound 0.2 µM) of 0.901.
